Laboratory results reported in patent US20220024992A1, “COMPOSITIONS AND METHODS COMPRISING LYSOCINS AS BIOENGINEERED ANTIMICROBIALS FOR USE IN TARGETING GRAM-NEGATIVE BACTERIA” (The Rockefeller University, priority 2018, published 2022).
“And” between values parts separate entries of the source, which are not always exact repeats. Identical values can stand only once.

Tests used:
P. aeruginosa strain 453 [1] = assay: Murine model of bacteremia; type: in vivo, mice; details: for protected from death (survival over 10 days): 3 h post-infection
Experimental: A murine model of bacteremia using P. aeruginosa was adapted from previous studies (46-50). Briefly, male 6-week-old C57BL/6 mice (Charles River Laboratories) were IP infected with 10^8 P. aeruginosa strain 453 and then IP treated 3 h post-infection with a single dosage of either PBS or PyS2-GN4 at 2.5-25 mg/kg. Survival was monitored for 10 days. The collective results were obtained from four independent experiments and analyzed by Kaplan-Meier survival curves using GraphPad Prism. The Rockefeller University Institutional Animal Care and Use Committee approved all mouse experiments (protocol 17025).

P. aeruginosa strain 453 [2] = assay: Endotoxin release (chromogenic LAL assay); type: cell-based; details: after 4 h treatment, 0.2× and 5×MIC
Experimental: Endotoxin Release P. aeruginosa strain 453 at 10^6 CFU/ml was treated with 0.2× and 5×MIC PyS2-GN4, colistin, meropenem or tobramycin in CAA medium for either 1 or 4 h at 37° C. The samples were subsequently centrifuged at 2,000×g for 10 min. The supernatant was collected and passed through a 0.2 μm syringe filter. Endotoxin concentration in the filtered supernatant was quantitated using the ToxinSensor Chromogenic LAL Endotoxin Assay Kit (GenScript). All data was depicted as the mean±SEM of duplicate experiments.

P. aeruginosa strain 453 [3] = assay: Lysocin thermal stability (residual antipseudomonal activity after heating); type: physicochemical; details: 30 min incubation in PBS, then 50 μg/ml for 4 h at 37° C.
Experimental: FIG. 7. Lysocin thermal stability. PyS2-GN4 was incubated in phosphate buffered saline (PBS) for 30 min at temperatures ranging from 4° C. to 80° C. After cooling on ice, each sample at 50 μg/ml was incubated statically with P. aeruginosa strain 453 for a total of 4 h at 37° C. The average residual antipseudomonal activity of each sample was equated to the log10 decrease in viable bacterial cells when compared to the untreated control. All error bars correspond to ±SEM of triplicate experiments.

A. baumaneii ATCC 17978 = assay: MIC, modified broth microdilution, CAA medium; type: cell-based
Experimental: (§1) The MIC and MBC values were calculated using a modified version of the broth microdilution assay as previously described by the Clinical and Laboratory Standards Institute (CLSI) (45). The specific modifications were to the bacterial concentration and growth medium used. […] CAA medium was used for Gram-negative bacteria to simulate low iron conditions. Alternatively, MHB was used for Gram-positive bacteria due to their inability to grow in CAA medium. Bacterial growth was assessed by measuring the OD600 nm using a SpectraMax M5 microplate reader (Molecular Devices). The MIC was defined as the lowest antimicrobial concentration that inhibits bacterial growth. To determine the MBC, the contents from each well originating from the MIC microtiter plate was plated on CAA agar to quantitate bacterial viability. The MBC was defined as the lowest antimicrobial concentration required to kill ≥99.9% of the initial bacterial inoculum. Growth and sterility controls were included.

E. coli ATCC 25922 = assay: MIC, modified broth microdilution, CAA medium; type: cell-based
Experimental: as §1

K. pneumoniae NR-41916 = assay: MIC, modified broth microdilution, CAA medium; type: cell-based
Experimental: as §1

E. cloacae NR-50391 = assay: MIC, modified broth microdilution, CAA medium; type: cell-based
Experimental: as §1

P. aeruginosa strain 453 [4] = assay: Plate lysis assay using viable Pseudomonas; type: cell-based
Experimental: For determining muralytic activity, 25 pmol of each purified protein sample was spotted on 0.75% (wt/vol) agarose embedded with autoclaved P. aeruginosa in 50 mM Tris-HCl, pH 7.5. […] For elucidating antipseudomonal activity towards viable bacteria, 0.01-400 pmol of each purified protein sample was spotted on 0.75% (wt/vol) agarose comprising P. aeruginonsa strain 453 at an initial concentration of 5×10^6 CFU/ml in either CAA medium or CAA:HuS (1:1; HuS from pooled human male AB plasma, Sigma-Aldrich). Growth inhibition zones observed after 24 h incubation at 37° C. correspond to antipseudomonal activity. Buffer was spotted as a negative control.

P. aeruginosa strain 453 [5] = assay: Dose-response cell viability assay (killing kinetics); type: cell-based; details: for reduction in bacterial viability: 0.1-100 μg/ml, CAA medium with EDDHA
Experimental: For the 12 h experiments, 0.01-100 μg/ml of PyS2-GN4 was incubated statically at 37° C. with P. aeruginosa strain 453 at 10^6 CFU/ml in CAA medium with 0.5 mg/ml EDDHA (Complete Green Company). At 2 h increments, an aliquot was removed from each sample, serial diluted and plated on CAA agar to determine viable bacterial counts. For the 24 h experiments, lysocin at 0.1-100 μg/ml was incubated statically at 37° C. with P. aeruginosa strain 453 at 10^6 CFU/ml in either CAA medium or CAA:HuS (1:1) with EDDHA. After 24 h, the samples were serial diluted and plated on CAA agar to assess bacterial viability. An untreated control was used for each data set. All samples were investigated in duplicate.

P. aeruginosa strains = assay: MIC and MBC, modified CLSI broth microdilution, CAA medium; type: cell-based
Experimental: as §1

E. faecium EFSK-2 = assay: MIC, modified broth microdilution, MHB; type: cell-based
Experimental: as §1

S. aureus NR-45946 = assay: MIC, modified broth microdilution, MHB; type: cell-based
Experimental: as §1

S. pyogenes D471 = assay: MIC, modified broth microdilution, MHB; type: cell-based
Experimental: as §1

B. cereus RSVF1 = assay: MIC, modified broth microdilution, MHB; type: cell-based
Experimental: as §1

P. aeruginosa strain 453 [6] = assay: Transmission electron microscopy of lysocin-treated bacteria; type: cell-based; details: 50 μg/ml
Experimental: At 0, 30 and 60 min, an aliquot was removed and fixed with 100 mM sodium cacodylate, pH 7.4, containing 4% (vol/vol) paraformaldehyde and 2% (vol/vol) glutaraldehyde. TEM images were obtained by The Rockefeller University Electron Microscopy Resource Center.

P. aeruginosa strain 453 [7] = assay: Cell viability assays with 0.5 μM antimicrobial; details: iron-chelated CAA medium
Experimental: P. aeruginosa strain 453 were grown under iron-depleted conditions (see Bacterial Strains and Growth Conditions). The bacteria were harvested, washed and resuspended in fresh CAA medium with 0.5 mg/ml EDDHA. Using a 96-well flat-bottomed microtiter plate, the bacteria at ˜10^6 CFU/ml were incubated statically at 37° C. with either growth medium only (untreated control) or 0.5 μM purified antimicrobial. A 2 h incubation was used for the single time point experiments, whereas a 4 or 6 h incubation was used for the multiple time point assays. At various time points, an aliquot was removed from each sample, serially diluted and plated on CAA agar. After incubating the agar plates for up to 48 h at 37° C., colonies were counted in order to quantitate the CFU/ml concentration of surviving bacterial cells. Modifications were introduced to the aforementioned cell viability assay protocol for the experiment using P. aeruginosa grown in the presence of varying free iron concentrations. First, P. aeruginosa strain 453 were grown using iron-depleted or iron-rich conditions (CAA medium supplemented with 100 μM FeSO4) at 37° C. with aeration for a total of 16-18 h and subsequently assayed for lysocin sensitivity in PBS, pH 7.4. For the experiment analyzing lysocin activity in the presence of lung surfactant or serum, P. aeruginosa were incubated with or without lysocin in beractant ([sequence]; Abbvie) or HuS diluted 1:1 with 20 mM sodium phosphate, pH 7.0.

[8] = tested on: pseudomonal PG (autoclaved P. aeruginosa); assay: Muralytic plate lysis assay on autoclaved Pseudomonas; type: biochemical; details: 25 pmol spotted

PyS2-GN4: lysocin: PyS2 domains I-III, with domain IV (aa 559-689) deleted and replaced by the GN4 lysin (aa 1-144); 76 kDa
protected from death (survival over 10 days) (P. aeruginosa strain 453 [1]; 2.5 mg/kg IP): 73% | protected from death (survival over 10 days) (P. aeruginosa strain 453 [1]; 5 mg/kg IP): 80% | protected from death (survival over 10 days) (P. aeruginosa strain 453 [1]; 12.5 mg/kg IP): 93% | protected from death (survival over 10 days) (P. aeruginosa strain 453 [1]; 25 mg/kg IP): 100% | Pseudomonas in organs of surviving mice (P. aeruginosa strain 453 [1]; day 10): did not contain detectable Pseudomonas | endotoxin release, fold less than meropenem and tobramycin (P. aeruginosa strain 453 [2]): ~100 fold | temperature at which bactericidal activity was fully retained (P. aeruginosa strain 453 [3]): 45 °C | MIC (A. baumaneii ATCC 17978): >256 µg/mL | MIC (E. coli ATCC 25922): >256 µg/mL | MIC (K. pneumoniae NR-41916): >256 µg/mL | MIC (E. cloacae NR-50391): >256 µg/mL | amount spotted at which activity could be observed (P. aeruginosa strain 453 [4]; 50% HuS): 0.13 pmol | amount spotted at which antipseudomonal activity was displayed (P. aeruginosa strain 453 [4]; growth medium (CAA)): 0.64 pmol | reduction in bacterial viability (P. aeruginosa strain 453 [5]; 2 h): ~2 log10 | reduction in bacterial viability (P. aeruginosa strain 453 [5]; 4 h): ~3 log10 | reduction in bacterial viability (P. aeruginosa strain 453 [5]; 12 h): ~4 log10 | lysocin concentration that sterilized the bacterial culture (P. aeruginosa strain 453 [5]; 24 h, CAA medium and 50% HuS): 10 μg/ml and 132 nM | concentration at which bactericidal (P. aeruginosa strain 453 [5]; after 4 h): 0.1 µg/mL | MIC (P. aeruginosa strains; strain 452, FpvA type I): 4 µg/mL | MBC (P. aeruginosa strains; strain 453, FpvA type I): 0.25 µg/mL | MIC (P. aeruginosa strains; strain 453, FpvA type I): 0.25 µg/mL | MIC (P. aeruginosa strains; strain MDR-M-3, FpvA type I): 2 µg/mL | MIC (P. aeruginosa strains; strain PAO1, FpvA type I): 2 µg/mL | MIC values (P. aeruginosa strains; towards strain PAO1 and the 452, 453 and MDR-M-3 clinical isolates): ≤ 4 µg/mL | MIC (E. faecium EFSK-2): >256 µg/mL | MIC (S. aureus NR-45946): >256 µg/mL | MIC (S. pyogenes D471): >256 µg/mL | MIC (B. cereus RSVF1): >256 µg/mL | bacterial morphology by TEM (P. aeruginosa strain 453 [6]; 30 min post-treatment): transitioned from rod-shaped to a more spherical morphology | bacterial morphology by TEM (P. aeruginosa strain 453 [6]; 60 min post-treatment): intact, nonviable cells either lacking or with noticeably reduced cytoplasmic content | decrease in pseudomonal viability (P. aeruginosa strain 453 [7]; 3 h): 3.1 log10 | viable bacterial cells relative to limit of detection (10 CFU/ml) (P. aeruginosa strain 453 [7]; duration of the experiment (6 h)): incapable of lowering the number of viable bacterial cells to the limit of detection | muralytic activity (clearing zones) on autoclaved P. aeruginosa [8]: degraded Pseudomonas PG
